These results are taken from EP0219144A1, “Diphenyl ether herbicides” (SHELL INTERNATIONALE RESEARCH MAATSCHAPPIJ B.V., priority 1985, dated 1987).

Structures are written as SMILES.

The nature of this data set: physchem. Particulars: for half-life: 25% 1,4-dioxan. It is filed as physicochemical. How it is done: The hydrolytic stability of the compounds of this invention was compared with representative examples of other phenoxy phthalides specifically described in Applicants' earlier EPA 145078. This property was evaluated by determining the half-life (in hours) at pH7.0 and 9.0 in 25% 1,4-dioxan at 39°C. The results of these tests are set out in Table I below, in which the test compounds are identified by reference to the substituent A in the following formula: [drawing 12] 'N.D.D.' = No detectable decomposition over a 200 hour period

For the compound `CCC1(CC)OC(=O)c2ccc(Oc3ccc(C(F)(F)F)cc3Cl)cc21` [C(C2H5)2, H, 5-(2'-Chloro-4'-trifluoromethylphenoxy)-3,3-diethylphthalide], the “Half-Life pH 7.0” value (pH 7) was “NDD”. Moreover, the “Half-Life pH 9.0” value (pH 9) is “NDD”.

As for `CC1(C)OC(=O)c2ccc(Oc3c(Cl)cc(C(F)(F)F)cc3Cl)cc21` [C(CH3)2, Cl], the “Half-Life pH 7.0” value (pH 7) is on record as “NDD”. Besides, the “Half-Life pH 9.0” value (pH 9) is “NDD”.

As to `CC1(C)OC(=O)c2ccc(Oc3ccc(C(F)(F)F)cc3Cl)cc21` [C(CH3)2, H, 5-(2'-Chloro-4'-trifluoromethylphenoxy)-3,3-dimethyl phthalide], the half-life is 295000 min (pH 7) and 114000 min (pH 9).

Turning to `CCC1(C)OC(=O)c2ccc(Oc3ccc(C(F)(F)F)cc3Cl)cc21` (centres unmarked) [C(CH3)(C2H5), H], the “Half-Life pH 7.0” value (pH 7) is on record as “NDD”. For the same compound, the “Half-Life pH 9.0” value (pH 9) is “NDD”.

`O=C1OCc2cc(Oc3ccc(C(F)(F)F)cc3Cl)ccc21` [CH2, H, reference compound] had a half-life (pH 7) of 3390 min and a half-life (pH 9) of 870 min.

With `CC1OC(=O)c2ccc(Oc3ccc(C(F)(F)F)cc3Cl)cc21` (centres unmarked) [CH(CH3), H, (2'-chloro-9'-trifluoro-methylphenoxy)-3-methyl phthalide, reference compound], the half-life runs as follows: (pH 7) 63400 min; (pH 9) 660 min.

In turn, `COC1OC(=O)c2ccc(Oc3ccc(C(F)(F)F)cc3Cl)cc21` (centres unmarked) [CH(OCH3), H, reference compound] gave a half-life (pH 7) of 1030 min and a half-life (pH 9) of 72 min.
